According to US7687434B2, “Method of improving yield and vigor of plants” (Monsanto Technology, LLC, priority 2000, dated 2010):
In brackets after ≈: the same amount, converted by molar mass.

Experiments:
[1] = system: Fusarium solani, var. coeruleum 4-5; assay: In vitro inhibition of mycelial growth on silthiopham-amended agar; assay type: cell-based; on ACTIVITY RATING (0-3): key: 0 = no; 1 = weak; 2 = good; 3 = excellent
Phytopthera infestans = assay type: cell-based; conditions: Late blight
[2] = system: Fusarium oxysporum var. pisi race1 33-9; assay: In vitro inhibition of mycelial growth on silthiopham-amended agar; assay type: cell-based; on ACTIVITY RATING (0-3): key: 0 = no; 1 = weak; 2 = good; 3 = excellent
Colletotrichum trifolii = assay: as above; assay type: cell-based; conditions: Root rot in alfalfa; further: key: 0 = no; 1 = weak; 2 = good; 3 = excellent
[3] = system: Fusarium solani, var. pisi 34-1; assay: as above; assay type: cell-based; on ACTIVITY RATING (0-3): key: 0 = no; 1 = weak; 2 = good; 3 = excellent
[4] = system: microorganisms that are known to be soybean pathogens; assay: In vitro inhibition of mycelial growth, summary for soybean pathogens; assay type: cell-based; conditions: summary of Table 6
[5] = system: Fusarium solani, var. pisi 34-2; assay: In vitro inhibition of mycelial growth on silthiopham-amended agar; assay type: cell-based; on ACTIVITY RATING (0-3): key: 0 = no; 1 = weak; 2 = good; 3 = excellent
Rhizoctonia solani 15-10 = assay: as above; assay type: cell-based; on ACTIVITY RATING (0-3): key: 0 = no; 1 = weak; 2 = good; 3 = excellent
[6] = system: Fusarium oxysporum var. pisi race1 33-11; assay: as above; assay type: cell-based; on ACTIVITY RATING (0-3): key: 0 = no; 1 = weak; 2 = good; 3 = excellent
[7] = system: soybean plants (CSR2121 variety); assay: Soybean seed treatment field trial, upper Midwestern United States; assay type: in vivo
[8] = system: Fusarium oxysporum var. pisi race1 33-10; assay: In vitro inhibition of mycelial growth on silthiopham-amended agar; assay type: cell-based; on ACTIVITY RATING (0-3): key: 0 = no; 1 = weak; 2 = good; 3 = excellent
Rhizoctonia solani 15-9 = assay: as above; assay type: cell-based; on ACTIVITY RATING (0-3): key: 0 = no; 1 = weak; 2 = good; 3 = excellent
[9] = system: Gaeumannomyces graminis var. tritici; assay: as above; assay type: cell-based; on ACTIVITY RATING (0-3): key: 0 = no; 1 = weak; 2 = good; 3 = excellent
Septoria nodorum = assay: as above; assay type: cell-based; conditions: Glum blotch; further: key: 0 = no; 1 = weak; 2 = good; 3 = excellent
[10] = system: Fusarium solani, var. coeruleum 4-2; assay: as above; assay type: cell-based; on ACTIVITY RATING (0-3): key: 0 = no; 1 = weak; 2 = good; 3 = excellent
soybean plants = assay: Soybean seed treatment field trial on five farms in South Africa; assay type: in vivo
[11] = Fusarium solani, 96 h, Czapek-Dox agar, 4 days at 18° C., log-log fit
[12] = Fusarium oxysporum, 96 h, Czapek-Dox agar, 4 days at 18° C., log-log fit
[13] = seed treatment prior to planting, at plant maturity

C=CCNC(=O)c1c([Si](C)(C)C)sc(C)c1C [Silthiopham, 4,5-dimethyl-N-(2-propenyl)-2-(trimethylsilyl)-3-thiophenecarboxamide]
EC50 [1, 11]: 127 µg/mL (≈ 476 µM) | ACTIVITY RATING (0-3) ([1]; Root rot): 0 | ACTIVITY RATING (0-3) (Phytopthera infestans): 0 | EC50 [2, 12]: 109 µg/mL (≈ 407 µM) | ACTIVITY RATING (0-3) ([2]; Root rot): 0 | ACTIVITY RATING (0-3) (Colletotrichum trifolii): 0 | EC50 [3, 11]: 126 µg/mL (≈ 470 µM) | ACTIVITY RATING (0-3) ([3]; Root rot): 0 | activity against soybean pathogens (in words) [4]: little or no activity | EC50 [5, 11]: 106 µg/mL (≈ 398 µM) | ACTIVITY RATING (0-3) ([5]; Root rot): 0 | EC50 (Rhizoctonia solani 15-10; Rhizoctonia solani, 1510, 96 h, Czapek-Dox agar, 4 days at 18° C., log-log fit): 132 µg/mL (≈ 494 µM) | ACTIVITY RATING (0-3) (Rhizoctonia solani 15-10; Sheath blight): 0 | EC50 ([6]; Fusarium oxysporum, 96 h): 36100 µg/mL (≈ 135000 µM) | ACTIVITY RATING (0-3) ([6]; Root rot): 0 | improvement in yield compared with untreated control beans ([7]; FIG. 3, soybean yield): no improvement over the untreated control | seed weight increase (beans larger) than untreated control beans ([7]; FIG. 4): performed comparably with untreated beans | plant height increase (plants taller) than untreated control beans ([7]; FIG. 5): performed comparably with untreated beans | Canopy (% coverage) ([7]; percent of canopy closure, 100% is total coverage): 78% | Plant Height [7, 13]: 22.8 inches | Seed Weight [7, 13]: 11.0 gm/100 seeds | Grain Yield ([7]; seed treatment prior to planting, determined at plant maturity, adjusted to 13% moisture): 36.4 bu/ac | Vigor (1 worst-9 best) ([7]; standard 1-9 scale, 1 worst, 9 best and most vigorous): 6 | EC50 [8, 12]: 112 µg/mL (≈ 421 µM) | ACTIVITY RATING (0-3) ([8]; Root rot): 0 | EC50 (Rhizoctonia solani 15-9; Rhizoctonia solani, 159, 96 h, Czapek-Dox agar, 4 days at 18° C., log-log fit): 162 µg/mL (≈ 607 µM) | ACTIVITY RATING (0-3) (Rhizoctonia solani 15-9; Sheath blight): 0 | EC50 ([9]; Gaeumannomyces graminis, 96 h, Czapek-Dox agar, 4 days at 18° C., log-log fit): 0.001 µg/mL (≈ 0.00374 µM) | ACTIVITY RATING (0-3) ([9]; Take-all disease in cereals): 3 | activity against Gaerumannomyces graminis var. tritici (in words) ([9]; summary of Table 6): excellent activity | ACTIVITY RATING (0-3) (Septoria nodorum): 0 | EC50 [10, 11]: 113 µg/mL (≈ 423 µM) | ACTIVITY RATING (0-3) ([10]; Root rot): 0 | SOYBEAN YIELD (soybean plants; Avg. of farms 3-5 (dryland)): 1949 kg/ha | SOYBEAN YIELD (soybean plants; Farm 4, dryland, cultivar SNK444, sand clay 12%): 1844 kg/ha | SOYBEAN YIELD (soybean plants; Farm 5, dryland, cultivar SNK400, clay 40%): 2054 kg/ha | grain yield, statistical comparison (soybean plants; combination vs standard Mollyflo+Bradyrhizobium, silthiopham alone vs non-treated control): did not significantly differ from the non-treated control | visual appearance of vegetative growth (soybean plants; compared to the standard Mollyflo+inoculant treatment): appeared visually greener and more vigorous | number of nodules on plant roots (soybean plants; farms 4 and 5, FIGS. 6 and 7, plants in 400-mm rows): did not substantially affect the number of nodules | plant weight (soybean plants; farms 4 and 5, FIGS. 8 and 9, 2 meters per plot): no effect on plant weight | visual appearance of nodules (soybean plants; where silthiopham was included in the treatment): Nodules visually appeared healthier
